# Laboratory results from PubChem BioAssay AID2060599 (Molecular Pharmacology Branch, DTP, NCI, 2025).
# pIC50: −log10 of the molar value. “And” between values parts separate entries of the source, which are not always exact repeats. Equal values may be shown once.
# System: 817829-284-R-J1-PDC complex spheroids, viability
# Experiment: Anticancer human tumor 817829-284-R-J1-PDC patient-derived colon adenocarcinoma cell line growth inhibition [CLK]
# Settings: for viability, T/C: stronger effect = lower value
# From the text: A high-throughput screen of multi-cell type tumor spheroids was designed to identify active combinations of […] and targeted small molecules. Complex spheroids include a stromal component modeled by human endothelial cells (HUVEC) and fibroblasts modeled by human mesenchymal stem cells (MSCs). The concentration ranges selected for each drug and investigational agent were based upon clinically achievable concentrations if the clinical Cmax of the agent was known.
# Compounds. The drugs and investigational agents: cirtuvivint (SM08502; NSC835563), CC-671 (NSC850746), vemurafenib (NSC761431), tapotoclax (NSC804041), sotorasib (NSC818433), adagrasib (NSC831453), MRTX-1133 (NSC836407), BAY2416964 (NSC825713), copanlisib (NSC816437), inavolisib (NSC800729), abemaciclib (NSC768073), osimertinib (NSC779217), entinostat (NSC756642), eltanexor (KPT-8602, NSC794443), venetoclax (NSC766270), ceralasertib (NSC777638), bortezomib (NSC756655), olaparib (NSC753686), talazoparib (NSC767125), alisertib (NSC759677), peposertib (NSC802822), gemcitabine (NSC613327), 5-fluorouracil (NSC19893), SN-38 (NSC673596), oxaliplatin (NSC266046), paclitaxel (NSC125973), and doxorubicin (NSC123127), were obtained from the National Cancer Institute (NCI) Developmental Therapeutics Program Chemical Repository. The FDA-approved anticancer drug set is available from the Developmental Therapeutics Program at https://dtp.cancer.gov/organization/dscb/obtaining/available plates.htm. […] The stock solutions were prepared in dimethyl sulfoxide (DMSO, Sigma-Aldrich, St. Louis, MO, cat. D2650), except for the platinum complexes which were prepared in saline (Quality Biological, Gaithersburg, MD, cat. 114-055-101), at 800-fold the tested concentration and stored at -70 degrees C prior to their use. All drugs and investigational agents were tested over a range starting from a high concentration at or near the clinical Cmax and decreasing in half-log increments. If the clinical Cmax for an agent had not been determined, the highest concentration tested was 10 microM.
# Cell Culture. All cells were maintained in an incubator at 37 degrees C and 5% CO2 with 95% humidity. The PDC lines were cultured according to standard operating procedures established by the NCI PDMR. Briefly, all PDCs were thawed and cultured in Matrigel-coated flasks prepared with a working solution of 1X Ham's F-12 nutrient mix, without supplementation (Invitrogen, Waltham, MA, cat. 11765054), 100 U/mL penicillin-streptomycin (Invitrogen, cat. 15140122), and 2.5% Matrigel (Corning Inc., Corning, NY, cat. 354248) for the first three passages. The 947758-054-R-J2-PDC line was cultured in 6B/Colon 1A media, which includes advanced DMEM/F-12 (Thermo Fisher Scientific, cat. 12634028), 10 mM HEPES (Thermo Fisher Scientific, cat. 15630080), 1X GlutaMAX supplement (Thermo Fisher Scientific, cat. 35050061), 0.1 mg/mL primocin (InvivoGen, cat. ant-pm-2), 10% defined fetal bovine serum, heat inactivated (HyClone Laboratories Inc., cat. SH30070.03HI), 1.25 mM N-Acetyl-L-cysteine (Sigma-Aldrich, cat. A9165), 10 mM nicotinamide (Sigma-Aldrich, cat. N0636), 1X B-27 supplement (Thermo Fisher Scientific, cat. 17504044), 1X N-2 supplement (Thermo Fisher Scientific, cat. 17502048), and 10 microM Y-27632 dihydrochloride (Tocris Bioscience, cat. 1254). The 876862-298-R-J1-PDC was cultured in 6E media, which includes all 6B/Colon 1A media components plus 50% L-WRN conditioned media (ATCC, cat. CRL-3276), 50 ng/mL recombinant human EGF recombinant protein (hEGF; Thermo Fisher Scientific, cat. PHG0311), 10 ng/mL recombinant human fibroblast growth factor 10 (hGFG-10; PeproTech, cat. 100-26), 1 ng/mL recombinant human fibroblast growth factor 2 (hFGF-2; PeproTech, cat. 100-18B), and 1 µM prostaglandin E2 (PGE2; Tocris, cat. 2296). The 227483-062-R1-J1-PDC line was cultured in Panc media, containing all 6E components except hFGF-2, with the addition of 500 nM SB-431542 (Selleckchem, cat. S1067) and 10 nM gastrin (Tocris, cat. 3006). […]
# [1] = curve of first compound, second compound 0.0316 µM
# [2] = curve of first compound, second compound 0.1 µM
# [3] = curve of first compound, second compound 0.316 µM
# [4] = curve of first compound, second compound 1 µM
# [5] = curve of first compound, second compound 3.16 µM
# [6] = curve of first compound, second compound 10 µM
# 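Further: spheroids exposed to the agents for seven days before readout.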
compound,measurement,setting,value
O=C(c1cc(Cc2n[nH]c(=O)c3ccccc23)ccc1F)N1CCN(C(=O)C2CC2)CC1,"viability, T/C",compound 0.0316 µM,87.7% and 101%
same,"viability, T/C",compound 0.1 µM,89% and 107%
same,"viability, T/C",compound 0.316 µM,81.1% and 74.2%
same,"viability, T/C",compound 1 µM,70.4% and 86.8%
same,"viability, T/C",compound 3.16 µM,52.5% and 54%
same,"viability, T/C",compound 10 µM,34.7% and 36.2%
same,pIC50,curve of compound,5.43 and 5.32
NC(=O)C(=Cn1cnc(-c2cc(C(F)(F)F)cc(C(F)(F)F)c2)n1)c1cncnc1 + CN1CCN(c2cc(C(=O)Nc3cc4cc(-c5cnn(C)c5)ccc4cn3)ccn2)CC1,pIC50,[1],> 8.02
same,pIC50,[2],> 8.02
same,pIC50,[3],> 8.02
same,pIC50,[4],> 8.02
same,pIC50,[5],> 8.02
same,pIC50,[6],> 8.02
same,"viability, T/C","second compound 0.0316 µM, first compound 0.00949 µM",21.1%
same,"viability, T/C","second compound 0.0316 µM, first compound 0.03 µM",19.4%
same,"viability, T/C","second compound 0.0316 µM, first compound 0.0949 µM",8.87%
same,"viability, T/C","second compound 0.0316 µM, first compound 0.3 µM",2.37%
same,"viability, T/C","second compound 0.0316 µM, first compound 0.949 µM",1.3%
same,"viability, T/C","second compound 0.0316 µM, first compound 3 µM",0.87%
same,"viability, T/C","second compound 0.1 µM, first compound 0.00949 µM",7.2%
same,"viability, T/C","second compound 0.1 µM, first compound 0.03 µM",4.72%
same,"viability, T/C","second compound 0.1 µM, first compound 0.0949 µM",1.8%
same,"viability, T/C","second compound 0.1 µM, first compound 0.3 µM",0.15%
same,"viability, T/C","second compound 0.1 µM, first compound 0.949 µM",0.19%
same,"viability, T/C","second compound 0.1 µM, first compound 3 µM",0.22%
same,"viability, T/C","second compound 0.316 µM, first compound 0.00949 µM",0.46%
same,"viability, T/C","second compound 0.316 µM, first compound 0.03 µM",0.1%
same,"viability, T/C","second compound 0.316 µM, first compound 0.0949 µM",0.07%
same,"viability, T/C","second compound 0.316 µM, first compound 0.3 µM",0.05%
same,"viability, T/C","second compound 0.316 µM, first compound 0.949 µM",0.06%
same,"viability, T/C","second compound 0.316 µM, first compound 3 µM",0.17%
same,"viability, T/C","second compound 1 µM, first compound 0.00949 µM",0.06%
same,"viability, T/C","second compound 1 µM, first compound 0.03 µM",0.09%
same,"viability, T/C","second compound 1 µM, first compound 0.0949 µM",0.13%
same,"viability, T/C","second compound 1 µM, first compound 0.3 µM",0.1%
same,"viability, T/C","second compound 1 µM, first compound 0.949 µM",0.12%
same,"viability, T/C","second compound 1 µM, first compound 3 µM",0.29%
same,"viability, T/C","second compound 3.16 µM, first compound 0.00949 µM",0.06%
same,"viability, T/C","second compound 3.16 µM, first compound 0.03 µM",0.16%
same,"viability, T/C","second compound 3.16 µM, first compound 0.0949 µM",0.19%
same,"viability, T/C","second compound 3.16 µM, first compound 0.3 µM",0.12%
same,"viability, T/C","second compound 3.16 µM, first compound 0.949 µM",0.17%
same,"viability, T/C","second compound 3.16 µM, first compound 3 µM",0.21%
same,"viability, T/C","second compound 10 µM, first compound 0.00949 µM",0.02%
same,"viability, T/C","second compound 10 µM, first compound 0.03 µM",0.09%
same,"viability, T/C","second compound 10 µM, first compound 0.0949 µM",0.13%
same,"viability, T/C","second compound 10 µM, first compound 0.3 µM",0.1%
same,"viability, T/C","second compound 10 µM, first compound 0.949 µM",0.17%
same,"viability, T/C","second compound 10 µM, first compound 3 µM",0.11%
CCN1CCN(Cc2ccc(Nc3ncc(F)c(-c4cc(F)c5nc(C)n(C(C)C)c5c4)n3)nc2)CC1,"viability, T/C",compound 0.00316 µM,79.4%
same,"viability, T/C",compound 0.01 µM,55.3%
same,"viability, T/C",compound 0.0316 µM,57.5%
same,"viability, T/C",compound 0.1 µM,50.8%
same,"viability, T/C",compound 0.316 µM,85.4%
same,"viability, T/C",compound 1 µM,39.3%
same,pIC50,curve of compound,< 6.00
C=CC(=O)N1CCN(c2nc(=O)n(-c3c(C)ccnc3C(C)C)c3nc(-c4c(O)cccc4F)c(F)cc23)C(C)C1 (stereo not drawn) + CNC(=O)c1ccc(Nc2nc(OC3CCCC3)c3c(-c4ccc5nc(C)oc5c4)c[nH]c3n2)c(OC)c1,pIC50,[1],> 7.50
same,pIC50,[2],> 7.50
same,pIC50,[3],> 7.50
same,pIC50,[4],> 7.50
same,pIC50,[5],> 7.50
same,pIC50,[6],> 7.50
same,"viability, T/C","second compound 0.0316 µM, first compound 0.0316 µM",35.9%
same,"viability, T/C","second compound 0.0316 µM, first compound 0.1 µM",44.3%
same,"viability, T/C","second compound 0.0316 µM, first compound 0.316 µM",34.6%
same,"viability, T/C","second compound 0.0316 µM, first compound 1 µM",24.2%
same,"viability, T/C","second compound 0.0316 µM, first compound 3.16 µM",25.9%
same,"viability, T/C","second compound 0.0316 µM, first compound 10 µM",15%
same,"viability, T/C","second compound 0.1 µM, first compound 0.0316 µM",30.9%
same,"viability, T/C","second compound 0.1 µM, first compound 0.1 µM",22.7%
same,"viability, T/C","second compound 0.1 µM, first compound 0.316 µM",30.4%
same,"viability, T/C","second compound 0.1 µM, first compound 1 µM",25.1%
same,"viability, T/C","second compound 0.1 µM, first compound 3.16 µM",22.2%
same,"viability, T/C","second compound 0.1 µM, first compound 10 µM",22.9%
same,"viability, T/C","second compound 0.316 µM, first compound 0.0316 µM",28.8%
same,"viability, T/C","second compound 0.316 µM, first compound 0.1 µM",35.2%
same,"viability, T/C","second compound 0.316 µM, first compound 0.316 µM",30.8%
same,"viability, T/C","second compound 0.316 µM, first compound 1 µM",22.8%
same,"viability, T/C","second compound 0.316 µM, first compound 3.16 µM",31.2%
same,"viability, T/C","second compound 0.316 µM, first compound 10 µM",17.4%
same,"viability, T/C","second compound 1 µM, first compound 0.0316 µM",22.3%
same,"viability, T/C","second compound 1 µM, first compound 0.1 µM",20.8%
same,"viability, T/C","second compound 1 µM, first compound 0.316 µM",18.2%
same,"viability, T/C","second compound 1 µM, first compound 1 µM",19.8%
same,"viability, T/C","second compound 1 µM, first compound 3.16 µM",20%
same,"viability, T/C","second compound 1 µM, first compound 10 µM",12.4%
same,"viability, T/C","second compound 3.16 µM, first compound 0.0316 µM",22.4%
same,"viability, T/C","second compound 3.16 µM, first compound 0.1 µM",25.8%
same,"viability, T/C","second compound 3.16 µM, first compound 0.316 µM",15.9%
same,"viability, T/C","second compound 3.16 µM, first compound 1 µM",22.2%
same,"viability, T/C","second compound 3.16 µM, first compound 3.16 µM",23.5%
same,"viability, T/C","second compound 3.16 µM, first compound 10 µM",10.6%
same,"viability, T/C","second compound 10 µM, first compound 0.0316 µM",27.2%
same,"viability, T/C","second compound 10 µM, first compound 0.1 µM",23.3%
same,"viability, T/C","second compound 10 µM, first compound 0.316 µM",22%
same,"viability, T/C","second compound 10 µM, first compound 1 µM",27.3%
same,"viability, T/C","second compound 10 µM, first compound 3.16 µM",19.1%
same,"viability, T/C","second compound 10 µM, first compound 10 µM",12%
